Source: patent EP2062893A1, “Fused imidazoles for cancer treatment” (Bayer Schering Pharma AG, priority 2007, dated 2009)
pIC50: −log10 of the molar value.

Assays:
Format in all cases: cell-based
phosphorylated GSK3 = assay: Cellular pGSK3 assay (phospho-GSK3 Ser9 sandwich ELISA); conditions: Homo sapiens; MCF7 cells, 48h incubation, IC50 of pGSK3 inhibition
Method: In order to study the cellular activity of the compounds according to the present invention, an ELISA-based assay has been established for the phosphorylated protein glycogen synthetase kinase 3 (GSK3). The assay is based on a solid phase sandwich ELISA that detects endogenous levels of phosphorylated GSK3 using a phospho-GSK3 (Ser9) specific antibody (BioSource International, Inc.; Catalog #KHO0461). After incubation with cell lysates, the coated antibody captures the phosphorylated GSK3 protein. Following extensive washing, GSK3 polyclonal antibody is added to detect the captured phospho-GSK3 protein. Secondary antibody (anti-rabbit IgG-HRP) is then used to recognize the bound detection antibody. After the second incubation and washing to remove all the excess anti-rabbit IgG-HRP, a substrate solution is added, which is acted upon by the bound enzyme to produce color. The intensity of this colored product is directly proportional to the concentration of GSK-3β [pS9] present in the original specimen. MCF7 cells (ATCC HTB-22) were seeded into 96 well fate bottom plates at a density of 10000 cells/well. After 24 h 1 µl each of the compound dilutions (test compounds were dissolved as 10 mM solutions in dimethylsulfoxide (DMSO) and subsequently diluted) were added into each well of the 96 well plates and incubated for 48h at 37°C in a humidified athmosphere containing 5% CO2. Cells were harvested and lysed in cell extraction buffer (10 mM Tris, pH 7.4, 100 mM NaCl, 1 mM EDTA, 1 mM EGTA, 1 mM NaF, 20 mM Na4P2O7, 2 mM Na3VO4, 1% Triton X-100, 10vol% glycerol, 0.1vol% SDS, 0.5vol% deoxycholate, 1 mM phenylmethylsulfonylfluorid (PMSF)). The lysate were centrifuged for 10 min. at 4°C and the supernatant were transferred to a new tube. 50 µl of sample diluent (standard diluent buffer, Biosource) were added and 100 µl of cell lysate transferred into the tube and vortexed. 100 µl of each diluted cell lysate were added to the appropriate ELISA well plate and incubated for 3h at room temperature. The plates were washed 4 times with 1x wash buffer (Biosource). 50 µl of detection antibody (GSK3 (Ser9) detection antibody; BioSource) were added to each well and incubated for 30 min. at room temperature. The washing procedure was repeated between each step. 100µl of HRP-linked secondary antibody (anti-mouse IgG HRP-linked antibody) were added to each well and incubated for 30 min. at room temperature. 100µl of TMB substrate (0.05vol% 3,3',5,5' tetramethylbenzidine, 0.1vol% hydrogen peroxide, complex polypeptides in a buffered solution; Biosource) were added to each well and incubated for 30 min. at room temperature. Finally 100 µl of Stop solution (0.05vol% α and β unsaturated carbonyl compound) were added to each well and the plate were shaked gently for a few seconds. The absorbance was measured at λ = 450 nm (Wallac Victor2; Perkin Elmer, USA) within 30 min. after adding the stop solution. The analysis of the data was performed using a statistical program (Excel; Microsoft, USA) and the IC50 of pGSK3 inhibition was determined.

[1] = test system: phosphorylated Akt protein; assay: Cellular PI3K / Akt pathway assay (phospho-Akt Ser473 sandwich ELISA); conditions: Homo sapiens; MCF7 cells, ß-Heregulin (20ng/ml) stimulation, 48h incubation
Method: In order to study the cellular activity of the compounds according to the present invention, an Enzyme Linked Immunosorbent Assay (ELISA)-based assay has been used specific phospho-AKT. The assay is based on a Sandwich ELISA kit (PathScan™ Phospho-Akt1 (Ser473); Cell Signaling, USA; #7160). The ELISA Kit detects endogenous levels of phosphorylated Akt protein. A phospho-Akt (Ser473) antibody (Cell Signaling, USA; #9271) has been coated onto the microwells. After incubation with cell lysates, the coated antibody captures the phosphorylated Akt protein. Following extensive washing, Akt1 monoclonal antibody (Cell Signaling, USA; #2967) is added to detect the captured phospho-Akt1 protein. HRP-linked anti-mouse antibody (HRP: horseradish peroxidase; Cell Signaling, USA; #7076) is then used to recognize the bound detection antibody. HRP substrate (= 3,3',5,5'-tetramethylbenzidine (TMB); Cell Signaling, USA; #7160) is added to develop colour. The magnitude of optical density for this developed color is proportional to the quantity of phosphorylated Akt protein. MCF7 cells (ATCC HTB-22) are seeded into 96 well fate bottom plates at a density of 10000 cells/well. 24 hours after seeding, the cells are serum starved using low-serum medium (IMEM media including 0,1% charcoal treated FCS (FCS: fetal calf serum)). […] To stimulate Akt phosphorylation, ß-Heregulin (20ng/ml ß-HRG) is added in parallel to the compounds. Wells containing unstimulated control cells (no ß-Heregulin stimulation) are incubated with or without the diluted compound. Wells containing untreated control cells (no compound) are filled with medium containing 0.5% v:v DMSO and are or are not stimulated with ß-Heregulin. Cells are harvested and lysed with brief sonification in 1x cell lysis buffer (20mM Tris (pH7.5), 150 mM NaCl, 1 mM ethylene diaminetetraacetate (EDTA), 1 mM ethylene glycolbis(2-aminoethyl)-N,N,N',N'-tetraacetic acid (EGTA), 1vol% Triton X-100, 2.5mM sodium pyrophosphate, 1 mM β-glycerolphosphate, 1 mM Na3VO4, 1µg/ml leupeptin). The lysate is centrifuged for 10 min. at 4°C and the supernatant is transferred to a new tube. 100 µl of sample diluent (0.1vol% Tween-20, 0.1vol% sodium azide in phosphate buffered saline (PBS)) are added to a microcentrifuge tube and 100 µl of cell lysate are transferred into the tube and vortexed. 100 µl of each diluted cell lysate are added to the appropriate ELISA well, and incubated overnight at 4°C. The plates are washed 4 times with 1x wash buffer (1vol% tween-20, 0.33vol% thymol, in PBS). Next 100 µl of detection antibody (Akt1 (2H10) monoclonal detection antibody; Cell Signaling, USA; #2967) are added to each well and incubation continued for 1h at 37°C. The washing procedure is repeated between each step. 100µl of secondary antibody (anti-mouse IgG HRP-linked antibody; Cell Signaling, USA; #7076) are added to each well and incubated for 30 min. at 37°C. Than, 100µl of TMB substrate (0.05% 3,3',5,5' tetramethylbenzidine, 0.1 % hydrogen peroxide, complex polypeptides in a buffered solution; Cell Signaling, USA; #7160) are added to each well and incubated for 30 min. at 25°C. Finally 100 µl of STOP solution (0.05vol% α and β unsaturated carbonyl compound) are added to each well and the plate are shaked gently. The absorbance is measured at λ =450 nm (Wallac Victor2; Perkin Elmer, USA) within 30 min. after adding the STOP solution. The analysis of the data is performed using a statistical program (Excel; Microsoft, USA). Preferred compounds show an inhibitory activity towards Akt phosphorylation below 10µM.

OvCAR3 cells = assay: Cellular proliferation / Cytotoxicity assay (Alamar Blue / Resazurin cell viability); conditions: Homo sapiens, OVCAR-3, 48h incubation, read-out: Anti-proliferative / Cytotoxic activity (OvCAR3 cells)
Method: Wells containing untreated control cells were filled with 200 µl DMEM (Dulbecco's Modified Eagle Medium) containing 0.5vol% v:v DMSO. The cells are then incubated with the substances for 48h at 37°C in a humidified atmosphere containing 5vol% CO2. To determine the viability of the cells, 20 µl of a Resazurin solution (90mg / I) are added. […] Viabilities are expressed as % values.

SMILES	pIC50 (phosphorylated GSK3)	pIC50 [1]	pIC50 (OvCAR3 cells)
NC(=O)c1ccn2c(-c3ccccc3)c(-c3ccc(CN4CCC(c5n[nH]c(-c6ccccn6)n5)CC4)cc3)nc2c1 [Example 38, 3-phenyl-2-(4-{[4-(5-pyridin-2-yl-1,2,4-triazol-3-yl)piperidin-1-yl]methyl}phenyl)imidazo[1,2-a]pyridine-7-carboxamide]	> 6.00	> 6.00	> 5.00
c1ccc(-c2c(-c3ccc(CN4CCC(c5n[nH]c(-c6ccccn6)n5)CC4)cc3)nc3sccn23)cc1 [Example 10, 5-phenyl-6-(4-{[4-(5-pyridin-2-yl-1,2,4-triazol-3-yl)piperidin-1-yl]methyl}phenyl)imidazo[2,1-b][1,3]thiazole]	> 6.00	> 6.00	> 5.00
COc1ccc(-c2c(-c3ccc(CN4CCC(c5n[nH]c(-c6ccccn6)n5)CC4)cc3)nc3ccccn23)cc1 [Example 15, 3-(4-methoxyphenyl)-2-(4-{[4-(5-pyridin-2-yl-1,2,4-triazol-3-yl)piperidin-1-yl]methyl}phenyl)imidazo[1,2-a]pyridine]	5.00 to 6.00	< 5.00	< 5.00
c1ccc(-c2nc(C3CCN(Cc4ccc(-c5nc6ncccn6c5-c5nccs5)cc4)CC3)n[nH]2)nc1 [Example 39, 2-(4-{[4-(5-pyridin-2-yl-1,2,4-triazol-3-yl)piperidin-1-yl]methyl}phenyl)-3-(1,3-thiazol-2-yl)imidazo[1,2-a]pyrimidine]	5.00 to 6.00	> 6.00	> 5.00
Clc1nccn2c(-c3ccccc3)c(-c3ccc(CN4CCC(c5n[nH]c(-c6ccccn6)n5)CC4)cc3)nc12 [Example 26, 8-chloro-3-phenyl-2-(4-{[4-(5-pyridin-2-yl-1,2,4-triazol-3-yl)piperidin-1-yl]methyl}phenyl)imidazo[1,2-a]pyrazine]	5.00 to 6.00		> 5.00
NC(=O)c1cccn2c(-c3ccccc3)c(-c3ccc(CN4CCC(c5n[nH]c(-c6ccccn6)n5)CC4)cc3)nc12 [Example 40, 3-phenyl-2-(4-{[4-(5-pyridin-2-yl-1,2,4-triazol-3-yl)piperidin-1-yl]methyl}phenyl)imidazo[1,2-a]pyridine-8-carboxamide]	> 6.00	> 6.00	
c1ccc(-c2c(-c3ccc(CN4CCC(c5nc(-c6cnccn6)no5)CC4)cc3)nc3ncccn23)cc1 [Example 4, 3-phenyl-2-(4-{[4-(3-pyrazin-2-yl-1,2,4-oxadiazol-5-yl)piperidin-1-yl]methyl}phenyl)imidazo[1,2-a]pyrimidine]	5.00 to 6.00		< 5.00
Clc1ccc2nc(-c3ccc(CN4CCC(c5n[nH]c(-c6ccccn6)n5)CC4)cc3)c(-c3ccccc3)n2n1 [Example 31, 6-chloro-3-phenyl-2-(4-{[4-(5-pyridin-2-yl-1,2,4-triazol-3-yl)piperidin-1-yl]methyl}phenyl)imidazo[1,2-b]pyridazine]	> 6.00	> 6.00	
c1ccc(-c2nc(C3CCN(Cc4ccc(-c5nc6ncccn6c5-c5cccs5)cc4)CC3)n[nH]2)nc1 [Example 35, 2-(4-{[4-(5-pyridin-2-yl-1,2,4-triazol-3-yl)piperidin-1-yl]methyl}phenyl)-3-(2-thienyl)imidazo[1,2-a]pyrimidine]	5.00 to 6.00		> 5.00
c1ccc(-c2nc(C3CCN(Cc4ccc(-c5nc6ncccn6c5-c5ccncc5)cc4)CC3)n[nH]2)nc1 [Example 36, 3-pyridin-4-yl-2-(4-{[4-(5-pyridin-2-yl-1,2,4-triazol-3-yl)piperidin-1-yl]methyl}phenyl)imidazo[1,2-a]pyrimidine]	5.00 to 6.00		< 5.00
FC(F)(F)c1ccn2c(-c3ccccc3)c(-c3ccc(CN4CCC(c5n[nH]c(-c6ccccn6)n5)CC4)cc3)nc2n1 [Example 28, 3-phenyl-2-(4-{[4-(5-pyridin-2-yl-1,2,4-triazol-3-yl)piperidin-1-yl]methyl}phenyl)-7-(trifluoromethyl)imidazo[1,2-a]pyrimidine]	5.00 to 6.00		> 5.00
c1ccc(-c2nc(C3CCN(Cc4ccc(-c5nc6sccn6c5-c5nccs5)cc4)CC3)n[nH]2)nc1 [Example 42, 6-(4-{[4-(5-pyridin-2-yl-1,2,4-triazol-3-yl)piperidin-1-yl]methyl}phenyl)-5-(1,3-thiazol-2-yl)imidazo[2,1-b][1,3]thiazole]		> 6.00	
Fc1ccccc1-c1c(-c2ccc(CN3CCC(c4n[nH]c(-c5ccccn5)n4)CC3)cc2)nc2ncccn12 [Example 41, 3-(2-fluorophenyl)-2-(4-{[4-(5-pyridin-2-yl-1,2,4-triazol-3-yl)piperidin-1-yl]methyl}phenyl)imidazo[1,2-a]pyrimidine]		> 6.00	
N#Cc1cccn2c(-c3ccccc3)c(-c3ccc(CN4CCC(c5n[nH]c(-c6ccccn6)n5)CC4)cc3)nc12 [Example 5, 3-phenyl-2-(4-{[4-(5-pyridin-2-yl-1,2,4-triazol-3-yl)piperidin-1-yl]methyl}phenyl)imidazo[1,2-a]pyridine-8-carbonitrile]	> 6.00	> 6.00	
